Assay results reported in patent US9096591B2, “Tetracyclic compounds” (Medivation Technologies, Inc., priority 2007, dated 2015).

What was measured:
[1] = molecular target: T1, human recombinant adrenergic α1D receptor (Homo sapiens, UniProt P25100); assay: Adrenergic α1D radioligand binding ([3H]Prozosin); parameters: Inhibition of ligand binding, Adren. alpha1D: concentration or dose not given beside the values; conditions: for Inhibition of ligand binding, Adren. alpha1D: percent inhibition of specific binding; for inhibition at 1 µM: compounds screened at 1 μM, read-out: Inhibition of ligand binding, Adren. alpha1D (percent inhibition of specific binding)
T1 construct: expressed in transfected cells; host or cells: HEK-293 cells
T1 sequence (P25100 1-572): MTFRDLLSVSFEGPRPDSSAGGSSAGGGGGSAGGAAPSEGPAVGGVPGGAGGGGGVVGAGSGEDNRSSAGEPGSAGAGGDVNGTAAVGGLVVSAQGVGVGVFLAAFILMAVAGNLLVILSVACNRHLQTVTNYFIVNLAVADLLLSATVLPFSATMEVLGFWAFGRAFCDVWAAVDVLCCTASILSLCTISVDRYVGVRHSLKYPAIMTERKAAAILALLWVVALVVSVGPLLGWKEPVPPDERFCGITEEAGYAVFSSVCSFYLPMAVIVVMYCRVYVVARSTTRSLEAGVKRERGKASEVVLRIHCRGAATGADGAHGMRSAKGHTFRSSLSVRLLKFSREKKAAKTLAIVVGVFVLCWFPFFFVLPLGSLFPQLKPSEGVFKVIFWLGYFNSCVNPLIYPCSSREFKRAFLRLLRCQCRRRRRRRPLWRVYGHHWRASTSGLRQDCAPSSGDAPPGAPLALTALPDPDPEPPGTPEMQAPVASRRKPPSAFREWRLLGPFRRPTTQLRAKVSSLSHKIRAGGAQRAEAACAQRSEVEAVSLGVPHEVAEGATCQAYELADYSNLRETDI
Method: Compounds of invention were incubated with 0.6 nM [^3H]Prozosin for 60 minutes at 25° C. Non-specific binding was estimated in the presence of 10 μM phentolamine. Receptor proteins were filtered and washed, the filters were then counted to determine [^3H]Prozosin specifically bound. […] Biochemical assay results are presented as the percent inhibition of specific binding in Table 6.

[2] = molecular target: T2, human recombinant adrenergic α2B receptor (Homo sapiens, UniProt P18089); assay: Adrenergic α2B radioligand binding ([3H]Rauwolscine); parameters: Inhibition of ligand binding, Adren. alpha2B: concentration or dose not given beside the values; conditions: for Inhibition of ligand binding, Adren. alpha2B: percent inhibition of specific binding; for inhibition at 1 µM: compounds screened at 1 μM, read-out: Inhibition of ligand binding, Adren. alpha2B (percent inhibition of specific binding)
T2 construct: expressed in transfected cells; host or cells: CHO-K1 cells
T2 sequence (P18089 1-450): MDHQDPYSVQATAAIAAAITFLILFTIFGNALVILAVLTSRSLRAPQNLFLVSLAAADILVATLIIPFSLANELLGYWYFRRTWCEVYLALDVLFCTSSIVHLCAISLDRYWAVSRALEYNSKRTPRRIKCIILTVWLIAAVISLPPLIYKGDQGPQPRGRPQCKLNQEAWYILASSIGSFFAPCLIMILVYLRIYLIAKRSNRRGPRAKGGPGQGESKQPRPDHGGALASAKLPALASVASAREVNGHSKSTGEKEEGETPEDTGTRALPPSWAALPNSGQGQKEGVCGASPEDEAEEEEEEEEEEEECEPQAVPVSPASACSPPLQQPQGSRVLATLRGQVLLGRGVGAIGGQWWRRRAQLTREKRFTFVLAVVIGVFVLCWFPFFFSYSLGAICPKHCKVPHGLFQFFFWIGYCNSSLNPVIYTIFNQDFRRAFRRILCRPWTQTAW
Method: To evaluate in radioligand binding assays the activity of compounds of the invention, human recombinant adrenergic α2B receptor expressed in Chinese hamster ovary (CHO-K1) cells (Uhlen S et al. Eur J. Pharmacol. 343(1):93, 1998) in a modified Tris-HCl buffer (50 mM Tris-HCl, pH 7.4, 12.5 mM MgCl2, 1 mM EDTA, 0.2% BSA) was used. Compounds of the invention were incubated with 2.5 nM [^3H]Rauwolscine for 60 minutes at 25° C. Non-specific binding was estimated in the presence of 10 μM Prozosin. Receptor proteins were filtered and washed, the filters were then counted to determine [^3H]Rauwolscine specifically bound. […] Biochemical assay results are presented as the percent inhibition of specific binding in Table 6.

[3] = molecular target: T3, human recombinant serotonin (5-Hydroxytryptamine) 5-HT2C receptor (Homo sapiens, UniProt P28335); assay: Serotonin 5-HT2C radioligand binding ([3H]Mesulergine); parameters: Inhibition of ligand binding, Ser. 5-HT2C: concentration or dose not given beside the values; conditions: for Inhibition of ligand binding, Ser. 5-HT2C: percent inhibition of specific binding; for inhibition at 1 µM: compounds screened at 1 μM, read-out: Inhibition of ligand binding, Ser. 5-HT2C (percent inhibition of specific binding)
T3 construct: expressed in transfected cells; host or cells: CHO-K1 cells
T3 sequence (P28335 33-458): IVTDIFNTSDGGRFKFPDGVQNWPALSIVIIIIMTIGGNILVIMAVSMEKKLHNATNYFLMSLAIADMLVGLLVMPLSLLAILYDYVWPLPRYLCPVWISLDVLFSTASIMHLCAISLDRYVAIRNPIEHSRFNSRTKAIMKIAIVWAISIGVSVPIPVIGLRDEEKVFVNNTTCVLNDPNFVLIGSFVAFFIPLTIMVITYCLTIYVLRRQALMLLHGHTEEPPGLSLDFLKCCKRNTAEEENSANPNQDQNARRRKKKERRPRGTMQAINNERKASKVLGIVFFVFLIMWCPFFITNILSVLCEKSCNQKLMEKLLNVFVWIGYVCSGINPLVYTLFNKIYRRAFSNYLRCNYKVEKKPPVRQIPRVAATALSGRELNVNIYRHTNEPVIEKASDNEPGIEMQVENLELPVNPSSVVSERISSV
Method: Compounds of the invention were incubated with 1 nM [^3H]Mesulergine for 60 minutes at 25° C. Non-specific binding was estimated in the presence of 1 μM Mianserin. Receptor proteins were filtered and washed, the filters were then counted to determine [^3H]Mesulergine specifically bound. […] Biochemical assay results are presented as the percent inhibition of specific binding in Table 6.

[4] = molecular target: T4, human recombinant serotonin (5-Hydroxytryptamine) 5-HT6 receptor (Homo sapiens, UniProt P50406); assay: Serotonin 5-HT6 radioligand binding ([3H]LSD); parameters: Inhibition of ligand binding, Ser. 5-HT6: concentration or dose not given beside the values; conditions: for Inhibition of ligand binding, Ser. 5-HT6: percent inhibition of specific binding; for inhibition at 1 µM: compounds screened at 1 μM, read-out: Inhibition of ligand binding, Ser. 5-HT6 (percent inhibition of specific binding)
T4 construct: expressed in transfected cells; host or cells: human HeLa cells
T4 sequence (P50406 whole entry): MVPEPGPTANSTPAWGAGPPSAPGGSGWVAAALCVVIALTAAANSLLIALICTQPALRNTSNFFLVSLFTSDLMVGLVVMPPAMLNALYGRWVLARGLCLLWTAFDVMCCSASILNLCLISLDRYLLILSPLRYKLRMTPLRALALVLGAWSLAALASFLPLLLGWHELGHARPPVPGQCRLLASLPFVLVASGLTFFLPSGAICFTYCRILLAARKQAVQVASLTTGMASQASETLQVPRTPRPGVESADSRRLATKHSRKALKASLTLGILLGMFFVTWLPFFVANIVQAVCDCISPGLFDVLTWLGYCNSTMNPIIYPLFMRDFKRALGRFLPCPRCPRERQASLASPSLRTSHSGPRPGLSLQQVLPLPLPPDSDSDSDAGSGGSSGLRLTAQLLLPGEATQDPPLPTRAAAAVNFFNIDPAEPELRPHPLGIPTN
Description: Receptor proteins were filtered and washed, the filters were then counted to determine [3H]LSD specifically bound. […] Biochemical assay results are presented as the percent inhibition of specific binding in Table 6.

SMILES: Cc1ccc2c(c1)c1c(n2CCc2ccc(OC(C)(C)C)cc2)CCN(C)C1 [Compound 335, 5-(4-tert-butoxyphenethyl)-2,3,4,5-tetrahydro-2,8-dimethyl-1H-pyrido[4,3-b]indole]
- Inhibition of ligand binding, Adren. alpha1D [1]: 91%
- Inhibition of ligand binding, Adren. alpha2B [2]: 104%
- Inhibition of ligand binding, Ser. 5-HT2C [3]: 72%
- Inhibition of ligand binding, Ser. 5-HT6 [4]: 9%

SMILES: Cc1ccc(CCn2c3c(c4cc(Br)ccc42)CN(C)CC3)cn1 [Compound 487, 8-bromo-2-methyl-5-(2-(6-methylpyridin-3-yl)ethyl)-2,3,4,5-tetrahydro-1H-pyrido[4,3-b]indole]
- inhibition at 1 µM [1]: 90%
- inhibition at 1 µM [2]: 100%
- inhibition at 1 µM [3]: 84%
- inhibition at 1 µM [4]: 94%

SMILES: CN1CCc2c(c3cc(Cl)ccc3n2CC(=O)N2CCNC(=O)C2)C1 [Compound 246]
- Inhibition of ligand binding, Adren. alpha1D [1]: 12%
- Inhibition of ligand binding, Adren. alpha2B [2]: 11%
- Inhibition of ligand binding, Ser. 5-HT2C [3]: 59%
- Inhibition of ligand binding, Ser. 5-HT6 [4]: 2%

SMILES: Cc1ccc2c(c1)c1c(n2CCc2cnc(C)cn2)CCN(C)C1 [Compound 322, 2,8-dimethyl-5-(2-(5-methylpyrazin-2-yl)ethyl)-2,3,4,5-tetrahydro-1H-pyrido[4,3-b]indole]
- Inhibition of ligand binding, Adren. alpha1D [1]: 66%
- Inhibition of ligand binding, Adren. alpha2B [2]: 115%
- Inhibition of ligand binding, Ser. 5-HT2C [3]: 69%
- Inhibition of ligand binding, Ser. 5-HT6 [4]: 75%

SMILES: CC1CCCCN1C(=O)Cn1c2c(c3cc(Cl)ccc31)CN(C)CC2 (centres unmarked) [Compound 321, 2-(8-chloro-1,2,3,4-tetrahydro-2-methylpyrido[4,3-b]indol-5-yl)-1-(2-methylpiperidin-1-yl)ethanone]
- Inhibition of ligand binding, Adren. alpha1D [1]: 4%
- Inhibition of ligand binding, Adren. alpha2B [2]: 25%
- Inhibition of ligand binding, Ser. 5-HT2C [3]: 61%
- Inhibition of ligand binding, Ser. 5-HT6 [4]: 15%

SMILES: Cc1ccc(CCn2c3c(c4cc(I)ccc42)CN(C)CC3)cn1 [Compound 485, 2,3,4,5-tetrahydro-8-iodo-2-methyl-5-(2-(6-methylpyridin-3-yl)ethyl)-1H-pyrido[4,3-b]indole]
- inhibition at 1 µM [1]: 69%
- inhibition at 1 µM [2]: 98%
- inhibition at 1 µM [3]: 91%
- inhibition at 1 µM [4]: 94%

SMILES: CN1CCc2c(c3ncccc3n2CCc2ccncc2)C1 [Compound 482, 9-aza-2-methyl-5-(2-(pyridin-4-yl)ethyl)-2,3,4,5-tetrahydro-1H-pyrido[4,3-b]indole]
- inhibition at 1 µM [1]: 2%
- inhibition at 1 µM [2]: 10%
- inhibition at 1 µM [3]: 17%
- inhibition at 1 µM [4]: 4%

SMILES: CN1CCc2c(c3cc(Br)ccc3n2CC(=O)N2CCCCC2)C1 [Compound 516, 2-(8-bromo-2-methyl-3,4-dihydro-1H-pyrido[4,3-b]indol-5(2H)-yl)-1-(piperidin-1-yl)ethanone]
- inhibition at 1 µM [1]: 26%
- inhibition at 1 µM [2]: 21%
- inhibition at 1 µM [3]: 58%
- inhibition at 1 µM [4]: 9%

SMILES: CN1CCc2c(c3cc(Cl)ccc3n2CC(=O)N2CCOCC2)C1 [Compound 238, 2-(8-chloro-1,2,3,4-tetrahydro-2-methylpyrido[4,3-b]indol-5-yl)-1-morpholinoethanone]
- Inhibition of ligand binding, Adren. alpha1D [1]: 2%
- Inhibition of ligand binding, Adren. alpha2B [2]: 14%
- Inhibition of ligand binding, Ser. 5-HT2C [3]: 20%
- Inhibition of ligand binding, Ser. 5-HT6 [4]: 5%

SMILES: CN1CCc2c(c3cc(Cl)ccc3n2CCCc2ccc(C(F)(F)F)nc2)C1 [Compound 324, 8-chloro-5-(3-(6-(trifluoromethyl)pyridin-3-yl)propyl)-2,3,4,5-tetrahydro-2-methyl-1H-pyrido[4,3-b]indole]
- Inhibition of ligand binding, Adren. alpha1D [1]: 53%
- Inhibition of ligand binding, Adren. alpha2B [2]: 98%
- Inhibition of ligand binding, Ser. 5-HT2C [3]: 57%
- Inhibition of ligand binding, Ser. 5-HT6 [4]: 93%

SMILES: CN1CCc2c(c3ccncc3n2CCc2ccccn2)C1 [Compound 481, 7-aza-2-methyl-5-(2-(pyridin-2-yl)ethyl)-2,3,4,5-tetrahydro-1H-pyrido[4,3-b]indole]
- inhibition at 1 µM [1]: 3%
- inhibition at 1 µM [2]: 19%
- inhibition at 1 µM [3]: 20%
- inhibition at 1 µM [4]: 14%

SMILES: CCOC(=O)c1ccc(CCn2c3c(c4cc(C)ccc42)CN(C)CC3)cn1 [Compound 275, ethyl 5-(2-(1,2,3,4-tetrahydro-2,8-dimethylpyrido[4,3-b]indol-5-yl)ethyl)pyridine-2-carboxylate]
- Inhibition of ligand binding, Adren. alpha1D [1]: 87%
- Inhibition of ligand binding, Adren. alpha2B [2]: 92%
- Inhibition of ligand binding, Ser. 5-HT2C [3]: 31%
- Inhibition of ligand binding, Ser. 5-HT6 [4]: 56%

SMILES: CN1CCc2c(c3cc(Cl)ccc3n2CC(=O)N2CCNCC2)C1 [Compound 244]
- Inhibition of ligand binding, Adren. alpha1D [1]: 12%
- Inhibition of ligand binding, Adren. alpha2B [2]: 13%
- Inhibition of ligand binding, Ser. 5-HT2C [3]: 22%
- Inhibition of ligand binding, Ser. 5-HT6 [4]: 13%

SMILES: COc1ccc(CCn2c3c(c4cc(C)ccc42)CN(C)CC3)cc1 [Compound 247]
- Inhibition of ligand binding, Adren. alpha1D [1]: 95%
- Inhibition of ligand binding, Adren. alpha2B [2]: 103%
- Inhibition of ligand binding, Ser. 5-HT2C [3]: 93%
- Inhibition of ligand binding, Ser. 5-HT6 [4]: 107%

SMILES: CCOc1ccc(CCn2c3c(c4cc(C)ccc42)CN(C)CC3)cc1 [Compound 334, 5-[2-(4-Ethoxy-phenyl)-ethyl]-2,8-dimethyl-2,3,4,5-tetrahydro-1H-pyrido[4,3-b]indole]
- Inhibition of ligand binding, Adren. alpha1D [1]: 110%
- Inhibition of ligand binding, Adren. alpha2B [2]: 111%
- Inhibition of ligand binding, Ser. 5-HT2C [3]: 97%
- Inhibition of ligand binding, Ser. 5-HT6 [4]: 101%

SMILES: CN1CCc2c(c3cc(Cl)ccc3n2CCC(=O)N2CCOCC2)C1 [Compound 328, 3-(8-chloro-1,2,3,4-tetrahydro-2-methylpyrido[4,3-b]indol-5-yl)-1-morpholinopropan-1-one]
- Inhibition of ligand binding, Adren. alpha1D [1]: 23%
- Inhibition of ligand binding, Adren. alpha2B [2]: 21%
- Inhibition of ligand binding, Ser. 5-HT2C [3]: 29%
- Inhibition of ligand binding, Ser. 5-HT6 [4]: 29%

SMILES: CN1CCc2c(c3ccncc3n2CCc2ccncc2)C1 [Compound 483, 7-aza-2-methyl-5-(2-(pyridin-4-yl)ethyl)-2,3,4,5-tetrahydro-1H-pyrido[4,3-b]indole]
- inhibition at 1 µM [1]: 3%
- inhibition at 1 µM [2]: 12%
- inhibition at 1 µM [3]: 9%
- inhibition at 1 µM [4]: 13%
